Marks after values point to notes of the source that are not given here.
Legend:
hDAGLα [1] = molecular target: T1, hDAGLα (Homo sapiens, UniProt Q9Y4D2); assay: Radio-TLC assay of hDAGLα inhibition with [14C]SAG substrate; format: biochemical; details: for inhibition of hDAGLα activity at 10 μM (in words): radiolabeled substrate [14C]SAG
T1 sequence (Q9Y4D2 1-1042): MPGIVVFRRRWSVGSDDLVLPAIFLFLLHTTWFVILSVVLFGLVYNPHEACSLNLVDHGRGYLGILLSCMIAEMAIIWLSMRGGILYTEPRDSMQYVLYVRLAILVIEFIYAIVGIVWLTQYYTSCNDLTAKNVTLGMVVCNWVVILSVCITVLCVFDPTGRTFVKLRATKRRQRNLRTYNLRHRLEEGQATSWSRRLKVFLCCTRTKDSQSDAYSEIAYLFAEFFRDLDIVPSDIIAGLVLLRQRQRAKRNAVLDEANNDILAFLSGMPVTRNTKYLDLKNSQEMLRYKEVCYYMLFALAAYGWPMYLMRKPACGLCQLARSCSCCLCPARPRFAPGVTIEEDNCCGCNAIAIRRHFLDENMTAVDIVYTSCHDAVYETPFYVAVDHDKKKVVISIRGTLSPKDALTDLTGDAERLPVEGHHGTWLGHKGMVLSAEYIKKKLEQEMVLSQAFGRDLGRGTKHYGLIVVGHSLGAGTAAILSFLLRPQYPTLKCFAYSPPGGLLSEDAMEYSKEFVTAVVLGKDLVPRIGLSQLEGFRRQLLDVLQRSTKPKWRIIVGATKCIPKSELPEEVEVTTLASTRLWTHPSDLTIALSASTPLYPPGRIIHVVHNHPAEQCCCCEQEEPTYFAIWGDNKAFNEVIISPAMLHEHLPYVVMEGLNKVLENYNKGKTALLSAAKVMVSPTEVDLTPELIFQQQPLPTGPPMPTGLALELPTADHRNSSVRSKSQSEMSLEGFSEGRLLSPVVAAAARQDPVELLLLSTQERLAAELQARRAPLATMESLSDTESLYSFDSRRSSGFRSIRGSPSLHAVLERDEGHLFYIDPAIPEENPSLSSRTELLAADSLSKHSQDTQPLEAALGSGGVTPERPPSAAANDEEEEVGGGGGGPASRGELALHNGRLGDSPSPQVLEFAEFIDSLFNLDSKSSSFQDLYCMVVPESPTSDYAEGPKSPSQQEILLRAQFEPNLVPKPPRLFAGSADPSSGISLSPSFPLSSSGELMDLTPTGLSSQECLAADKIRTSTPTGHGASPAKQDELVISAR

cannabinoid receptors = details: cited from earlier work
hDAGLα [2] = molecular target: T1, hDAGLα; details: cited from earlier work
FAAH = details: cited from earlier work
[3] = molecular target: CB1 (rat brain preparation) (Rattus norvegicus, UniProt P20272); assay: Cannabinoid receptor competition binding, CB1
CB1 (rat brain preparation), sequence (P20272 whole entry): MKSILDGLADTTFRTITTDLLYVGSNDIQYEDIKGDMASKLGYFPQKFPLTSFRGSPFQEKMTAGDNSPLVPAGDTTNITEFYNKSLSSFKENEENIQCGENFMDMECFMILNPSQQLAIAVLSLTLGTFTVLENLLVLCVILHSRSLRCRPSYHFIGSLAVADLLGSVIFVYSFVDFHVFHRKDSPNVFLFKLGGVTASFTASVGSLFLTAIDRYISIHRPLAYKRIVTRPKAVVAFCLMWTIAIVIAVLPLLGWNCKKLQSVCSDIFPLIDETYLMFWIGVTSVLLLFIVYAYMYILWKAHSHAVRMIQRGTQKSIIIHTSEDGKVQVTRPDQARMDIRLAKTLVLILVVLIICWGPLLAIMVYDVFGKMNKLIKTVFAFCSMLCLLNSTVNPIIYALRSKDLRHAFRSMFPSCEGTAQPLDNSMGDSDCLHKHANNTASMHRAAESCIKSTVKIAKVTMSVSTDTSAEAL

mDAGLβ = molecular target: T2, mDAGLβ (Mus musculus, UniProt Q91WC9); assay: Radio-TLC assay of mDAGLβ inhibition with [14C]SAG substrate; format: biochemical, murine
T2 sequence (Q91WC9 1-669): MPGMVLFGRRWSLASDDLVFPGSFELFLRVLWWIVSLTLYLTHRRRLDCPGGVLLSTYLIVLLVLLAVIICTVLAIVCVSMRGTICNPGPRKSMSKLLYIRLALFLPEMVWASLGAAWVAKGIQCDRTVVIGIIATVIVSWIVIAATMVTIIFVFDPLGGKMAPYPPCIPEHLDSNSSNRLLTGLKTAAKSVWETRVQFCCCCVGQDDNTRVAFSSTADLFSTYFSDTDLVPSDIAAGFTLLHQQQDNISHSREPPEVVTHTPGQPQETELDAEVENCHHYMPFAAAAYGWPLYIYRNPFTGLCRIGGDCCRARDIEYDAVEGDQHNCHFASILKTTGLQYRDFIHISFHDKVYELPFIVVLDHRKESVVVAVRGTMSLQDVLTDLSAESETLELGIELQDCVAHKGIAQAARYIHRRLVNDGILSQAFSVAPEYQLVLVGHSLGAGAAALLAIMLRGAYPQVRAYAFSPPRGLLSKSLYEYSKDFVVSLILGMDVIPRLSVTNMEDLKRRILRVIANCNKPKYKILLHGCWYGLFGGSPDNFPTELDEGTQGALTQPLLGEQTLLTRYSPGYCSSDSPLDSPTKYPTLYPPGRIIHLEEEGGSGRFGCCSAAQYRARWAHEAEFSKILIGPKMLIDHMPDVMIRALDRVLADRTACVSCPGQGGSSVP

hDAGLα [4] = molecular target: T1, hDAGLα; assay: In vitro FRET-based DAGL assay with reporter compound 17; format: biochemical
[5] = test system: Lipoprotein Lipase (Bacterial); assay: In vitro FRET-based lipoprotein lipase assay with reporter compound 17; format: biochemical, Pseudomonas sp.
[6] = molecular target: T3, Pancreatic Lipase (Porcine) (Sus scrofa, UniProt P00591); assay: In vitro FRET-based pancreatic lipase assay with reporter compound 17; format: biochemical; details: preliminary studies, substrate 17
T3 sequence (P00591 1-450): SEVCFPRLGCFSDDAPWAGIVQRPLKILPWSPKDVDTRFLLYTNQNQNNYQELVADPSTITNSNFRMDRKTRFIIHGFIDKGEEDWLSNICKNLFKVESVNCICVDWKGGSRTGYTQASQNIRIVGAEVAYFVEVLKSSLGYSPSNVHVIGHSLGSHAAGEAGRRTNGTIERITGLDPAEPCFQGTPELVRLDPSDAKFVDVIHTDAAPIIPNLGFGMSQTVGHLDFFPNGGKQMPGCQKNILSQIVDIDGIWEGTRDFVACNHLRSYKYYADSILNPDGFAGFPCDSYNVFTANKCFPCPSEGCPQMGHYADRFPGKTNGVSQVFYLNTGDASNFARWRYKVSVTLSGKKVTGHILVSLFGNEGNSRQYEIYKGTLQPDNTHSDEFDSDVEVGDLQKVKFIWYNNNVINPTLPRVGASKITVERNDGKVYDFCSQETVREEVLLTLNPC

| SMILES | inhibition of hDAGLα in radio-TLC assays (in words) (hDAGLα [1]) | binding to the cannabinoid receptors, previous reports (in words) (cannabinoid receptors) | reported inhibition of DAGL activity (in words) (hDAGLα [2]) | reported inhibition of FAAH activity (in words) (FAAH) | binding to the cannabinoid receptors (in words), CB1 [3] | inhibition of hDAGLα activity at 10 μM (in words) (hDAGLα [1]) | also measured |
| --- | --- | --- | --- | --- | --- | --- | --- |
| O=C(Oc1ccc([N+](=O)[O-])cc1)N1CCC(C(O)(c2ccc3c(c2)OCO3)c2ccc3c(c2)OCO3)CC1 [JZL184] | poor inhibitors | did not bind | poor inhibitors | poor inhibitors | – | – | – |
| NC(=O)c1cccc(-c2cccc(OC(=O)NC3CCCCC3)c2)c1 [URB597] | – | did not bind | – | – | – | – | – |
| O=S(=O)(F)Cc1ccccc1 [PMSF, phenylmethylsulfonylfluoride] | poor inhibitors | – | poor inhibitors | poor inhibitors | – | – | effect on / reaction with DAGL (in words) (hDAGLα [2]): not affected |
| O=C(N[C@H]1COC1=O)OCc1ccccc1 [SD41] | – | – | – | – | did not bind | did not inhibit | inhibition of mDAGLβ at 10 μM screening concentration (in words) (mDAGLβ): did not inhibit |
| O=C(NCCCCCCNC(=O)ON=C1CCCCC1)ON=C1CCCCC1 [RHC80267 (1), RHC80267] | poor inhibitors | – | poor inhibitors | poor inhibitors | did not bind | – | hDAGLα inhibition at 10 μM detergent free (%) (hDAGLα [4]): 40 ^* % |
| CCCCCCCCCCC[C@@H](C[C@@H]1OC(=O)[C@H]1CCCCCC)OC(=O)[C@H](CC(C)C)NC=O [3 (THL), tetrahydrolipstatin] | – | – | – | – | – | complete inhibition | inhibition of bacterial lipoprotein lipase (in words) [5]: potent inhibition; IC50 ([5]; read-out: apparent IC50 with lipoprotein lipase in FRET assay): ~100 nM; inhibition of porcine triacylglycerol lipase (in words) [6]: potent inhibition |

— article PMC3389199 (Bioorganic & medicinal chemistry letters, 2012)
